According to the CheMixHub viscosity set:

Assay: xn = mol fraction of the nth substance listed

c1ccc2ncccc2c1 + Oc1ccccc1
Conditions | viscosity [mPa·s]
293.25 K, 101 kPa, x2 = 0.101 | 4.595
293.25 K, 101 kPa, x2 = 0.1895 | 5.725
293.25 K, 101 kPa, x2 = 0.2876 | 7.85
293.25 K, 101 kPa, x2 = 0.3677 | 10.58
293.25 K, 101 kPa, x2 = 0.4518 | 15.03
293.25 K, 101 kPa, x2 = 0.5297 | 20.31
293.25 K, 101 kPa, x2 = 0.6094 | 24.52
293.25 K, 101 kPa, x2 = 0.6758 | 25.29
293.25 K, 101 kPa, x2 = 0.7465 | 23.27
293.25 K, 101 kPa, x2 = 0.8203 | 19.41
293.25 K, 101 kPa, x2 = 0.8731 | 16.6
293.25 K, 101 kPa, x2 = 0.9409 | 13.37
298 K, 101.3 kPa, x1 = 0.1054 | 12.7
298 K, 101.3 kPa, x1 = 0.1999 | 17.29
298 K, 101.3 kPa, x1 = 0.3001 | 20.99
298 K, 101.3 kPa, x1 = 0.4004 | 19.77
298 K, 101.3 kPa, x1 = 0.4996 | 14.31
298 K, 101.3 kPa, x1 = 0.5998 | 10.23
298 K, 101.3 kPa, x1 = 0.6997 | 7.295
298 K, 101.3 kPa, x1 = 0.7997 | 5.58
298 K, 101.3 kPa, x1 = 0.9023 | 4.054
303 K, 101.3 kPa, x1 = 0.1054 | 10.2
303 K, 101.3 kPa, x1 = 0.1999 | 13.09
303 K, 101.3 kPa, x1 = 0.3001 | 15.72
303 K, 101.3 kPa, x1 = 0.4004 | 14.98
303 K, 101.3 kPa, x1 = 0.4996 | 11.03
303 K, 101.3 kPa, x1 = 0.5998 | 8.24
303 K, 101.3 kPa, x1 = 0.6997 | 6.11
303 K, 101.3 kPa, x1 = 0.7997 | 4.797
303 K, 101.3 kPa, x1 = 0.9023 | 3.537
303.05 K, 101 kPa, x2 = 0.104 | 3.645
303.05 K, 101 kPa, x2 = 0.194 | 4.495
303.05 K, 101 kPa, x2 = 0.2786 | 5.605
303.05 K, 101 kPa, x2 = 0.3683 | 7.425
303.05 K, 101 kPa, x2 = 0.4478 | 9.65
303.05 K, 101 kPa, x2 = 0.5251 | 12.21
303.05 K, 101 kPa, x2 = 0.6009 | 14.36
303.05 K, 101 kPa, x2 = 0.672 | 14.8
303.05 K, 101 kPa, x2 = 0.744 | 13.44
303.05 K, 101 kPa, x2 = 0.8109 | 11.77
303.05 K, 101 kPa, x2 = 0.8741 | 10.1
303.05 K, 101 kPa, x2 = 0.9388 | 8.44
308 K, 101.3 kPa, x1 = 0.1054 | 8.195
308 K, 101.3 kPa, x1 = 0.1999 | 10.47
308 K, 101.3 kPa, x1 = 0.3001 | 12.4
308 K, 101.3 kPa, x1 = 0.4004 | 11.87
308 K, 101.3 kPa, x1 = 0.4996 | 8.92
308 K, 101.3 kPa, x1 = 0.5998 | 6.902
308 K, 101.3 kPa, x1 = 0.6997 | 5.266
308 K, 101.3 kPa, x1 = 0.7997 | 4.143
308 K, 101.3 kPa, x1 = 0.9023 | 3.095
313 K, 101.3 kPa, x1 = 0.1054 | 6.728
313 K, 101.3 kPa, x1 = 0.1999 | 8.655
313 K, 101.3 kPa, x1 = 0.3001 | 10.08
313 K, 101.3 kPa, x1 = 0.4004 | 9.694
313 K, 101.3 kPa, x1 = 0.4996 | 7.31
313 K, 101.3 kPa, x1 = 0.5998 | 5.796
313 K, 101.3 kPa, x1 = 0.6997 | 4.553
313 K, 101.3 kPa, x1 = 0.7997 | 3.608
313 K, 101.3 kPa, x1 = 0.9023 | 2.718
313.15 K, 101 kPa, x2 = 0.104 | 2.885
313.15 K, 101 kPa, x2 = 0.194 | 3.455
313.15 K, 101 kPa, x2 = 0.2786 | 4.195
313.15 K, 101 kPa, x2 = 0.3683 | 5.335
313.15 K, 101 kPa, x2 = 0.4478 | 6.6
313.15 K, 101 kPa, x2 = 0.5251 | 7.95
313.15 K, 101 kPa, x2 = 0.6009 | 8.87
313.15 K, 101 kPa, x2 = 0.672 | 9.04
313.15 K, 101 kPa, x2 = 0.744 | 8.39
313.15 K, 101 kPa, x2 = 0.8109 | 7.48
313.15 K, 101 kPa, x2 = 0.8741 | 6.56
313.15 K, 101 kPa, x2 = 0.9388 | 5.525
318 K, 101.3 kPa, x1 = 0.1054 | 5.655
318 K, 101.3 kPa, x1 = 0.1999 | 7.159
318 K, 101.3 kPa, x1 = 0.3001 | 8.328
318 K, 101.3 kPa, x1 = 0.4004 | 8.054
318 K, 101.3 kPa, x1 = 0.4996 | 5.886
318 K, 101.3 kPa, x1 = 0.5998 | 4.902
318 K, 101.3 kPa, x1 = 0.6997 | 3.996
318 K, 101.3 kPa, x1 = 0.7997 | 3.172
318 K, 101.3 kPa, x1 = 0.9023 | 2.416
